Legend:
[1] = system: IL-6 evoked grimace in ICR mice; assay: IL-6 evoked grimace test; type: in vivo; conditions: PO 1 hr prior to IL-6 (4ET-03-053: 10 mg/kg)
Protocol: Male and female Institute for Cancer Research (ICR) mice were used in these experiments. Mice were bred in house at University of Texas at Dallas and used at between 12 and 24 weeks of age. Mice were habituated to plexiglass boxes of approximately 4×6 inches in size with openable tops. Habituation took place over 2 days with animals exposed to the boxes for at least 30 min. A blinded observer scored baseline grimacing using the method previously described by Mogil and colleagues (Langford D J, et al. “Coding of facial expressions of pain in the laboratory mouse” Nat Methods 7:447-449 (2010)). On test day, mice were given test compounds 1 hr prior to injection of interleukin 6 (human recombinant IL-6, R&D Systems) which was given at a dose of 0.1 ng in saline via an intraplantar injection as described previously (Moy J K, et al. “The MNK-eIF4E Signaling Axis Contributes to Injury-Induced Nociceptive Plasticity and the Development of Chronic Pain” J Neurosci. 37:7481-7499 (2017)). Test compounds were given orally (PO) via a flexible oral gavage canula built for mice. 4ET-03-053 is efficacious in the IL-6 evoked grimace test in mice (PO; 10 mg/kg).
Effect sizes were calculated per mouse by subtracting the baseline grimace score from the sum of the grimace scores for 1 and 3 hr time points.

[2] = Liver microsome stability; conditions: mouse, liver microsomes
[3] = target: T1, recombinant full length human kinase MNK2 (Homo sapiens, UniProt Q9HBH9); assay: MNK2 radiometric kinase activity assay; type: biochemical; conditions: radiometric activity assay; read-out: MNK2
T1 construct: the recombinant full length human kinase MNK2; made in house; host or cells: insect cells
T1 sequence (Q9HBH9 whole entry): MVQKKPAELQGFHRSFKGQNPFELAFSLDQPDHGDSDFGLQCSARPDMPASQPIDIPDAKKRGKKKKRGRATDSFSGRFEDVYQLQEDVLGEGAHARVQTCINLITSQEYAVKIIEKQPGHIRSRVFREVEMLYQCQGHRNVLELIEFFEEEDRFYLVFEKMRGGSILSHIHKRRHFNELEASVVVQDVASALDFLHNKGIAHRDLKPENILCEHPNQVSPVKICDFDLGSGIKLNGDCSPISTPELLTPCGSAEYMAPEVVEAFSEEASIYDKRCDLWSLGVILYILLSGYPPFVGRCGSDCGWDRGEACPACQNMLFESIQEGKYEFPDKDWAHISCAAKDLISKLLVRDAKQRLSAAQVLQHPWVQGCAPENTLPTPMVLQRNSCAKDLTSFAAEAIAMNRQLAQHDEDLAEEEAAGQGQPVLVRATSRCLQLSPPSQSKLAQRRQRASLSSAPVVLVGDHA

[4] = system: P-gp (human MDR1, ABCB1); assay: MDCK-MDR1 permeability (blood-brain barrier permeability); conditions: dog
[5] = target: T2, recombinant full-length human kinase MNK1 (Homo sapiens, UniProt Q9BUB5); assay: MNK1 radiometric kinase activity assay; type: biochemical; conditions: radiometric activity assay; read-out: MNK1
T2 construct: the recombinant full-length human kinase MNK1; made in house; host or cells: insect cells
T2 sequence (Q9BUB5 whole entry): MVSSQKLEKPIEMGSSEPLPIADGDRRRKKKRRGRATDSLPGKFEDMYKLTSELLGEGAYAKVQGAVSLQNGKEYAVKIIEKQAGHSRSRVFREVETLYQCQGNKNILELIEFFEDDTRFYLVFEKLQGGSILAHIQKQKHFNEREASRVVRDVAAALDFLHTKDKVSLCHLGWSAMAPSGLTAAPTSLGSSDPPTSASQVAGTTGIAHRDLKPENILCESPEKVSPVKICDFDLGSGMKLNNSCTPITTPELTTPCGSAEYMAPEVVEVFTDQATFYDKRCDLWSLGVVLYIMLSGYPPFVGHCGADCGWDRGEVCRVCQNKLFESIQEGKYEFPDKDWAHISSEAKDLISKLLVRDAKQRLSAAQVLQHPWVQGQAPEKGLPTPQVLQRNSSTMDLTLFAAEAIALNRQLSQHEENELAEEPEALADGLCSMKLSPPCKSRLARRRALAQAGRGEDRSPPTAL

[6] = system: eIF4E phosphorylation at Serine 209 in HEK 293 cells; assay: eIF4E phosphorylation in HEK 293 cells (phospho-specific antibody, fluorescent plate reader); type: cell-based; conditions: Homo sapiens, HEK293; eIF4E phosphorylation at Serine 209, 2 hours exposure; read-out: HEK 293 cell;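 further: Well-level p-eIF4E immunofluorescence normalized to DAPI signal, expressed as percent eIF4E phosphorylation, with IC50 derived from concentration-response curves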
[7] = system: P-gp (human MDR1, ABCB1); assay: in vitro; conditions: dog, MDCK-MDR1
[8] = system: Wistar rats; assay: Intravenous self-administration with oxycodone and saline regimen; type: in vivo; conditions: Wistar rats; for Mean Difference, Šídák's multiple comparisons test: numbers of infusions
Protocol: Ten male and eleven female Wistar rats (Charles River, Hollister, CA) were used in this study. Rats were housed in groups of 2-3 per cage prior to surgery, and then individually housed to protect their catheters, in a temperature-controlled (22° C.) vivarium on a 12/12h light/dark cycle (lights off at 8:00 AM) with ad libitum access to food and water. The rats acclimated to the animal facility for at least 7 days before surgery. All procedures adhered to the National Institutes of Health Guide for the Care and Use of Laboratory Animals and were approved by the Institutional Animal Care and Use Committee of The Scripps Research Institute.
For surgery, rats were anesthetized with 2 to 3% isoflurane. They were implanted with a silastic catheter (0.3 mm i.d.×0.64 mm o.d.; Dow Corning Co. Midland, MI) into the right external jugular vein under aseptic conditions. The distal end of the catheter was subcutaneously threaded to the back of the rat where it exited via a metal guide cannula (22G; Plastics One Inc., Roanoke, VA) that was anchored at the back of the rat and closed with a small plastic cap and metal cover cap to keep the inside part of the catheter clean and protected (Caine S B, et al. “Effects of dopamine D-1 and D-2 antagonists on cocaine self-administration under different schedules of reinforcement in the rat” J Pharmacol Exp Ther. 270(1):209-18 (1994); Wee S, et al. “Effects of dose and session duration on cocaine self-administration in rats” J Pharmacol Exp Ther. 320(3):1134-43 (2007); Zorrilla E P, et al. “Extended access cocaine self-administration differentially activates dorsal raphe and amygdala corticotropin-releasing factor systems in rats” Addict Biol. 17(2):300-8 (2012); Valtcheva M V, et al. “Surgical extraction of human dorsal root ganglia from organ donors and preparation of primary sensory neuron cultures” Nat Protoc. 11:1877-1888 (2016)). All incisions were closed using veterinary tissue adhesive. After surgery, rats were given analgesic (Flunixin, 2.5 mg/kg s.c.).
Rats were allowed 5-7 days for recovery prior to self-administration.
The patency of catheters in the rats was tested using an ultra-short-acting barbiturate methohexital sodium (Brevital, Eli Lilly, Indianapolis, 1N, 10 mg/mL, 2 mg/rat) every 10-12 days during the study. Generally, a total loss of muscle tone within 3 s after a methohexital sodium injection indicates the patency of a catheter. Any animal that failed the test was excluded from the study.
During experimental sessions, each rat was placed in a standard operant chamber, which was placed in a light- and sound-attenuating cubicle (28×26×20 cm; Med Associates Inc., St. Albans, VT). The front door and the back wall of the chamber were made of transparent plastic, and the other walls were opaque metal. The chamber had two retractable response levers mounted on one side of the opaque walls. A stimulus light was mounted above each lever. A drug injection was delivered by a syringe pump (Razel Scientific Instruments, Georgia, VT) located on top of the cubicle. Experimental sessions were controlled and recorded by a PC computer with custom interface and software in the experimental room.
Experimental sessions were conducted once a day, 5-7 days a week during the dark (active) cycle. After being flushed with 0.9% saline, a rat's indwelling catheter was connected to a tube that exited the chamber through a metal spring and a swivel and was connected to a syringe pump. After the drug delivery system was connected to the rat, the chamber was closed, and the 2 hr session was started immediately. The start of a session was signaled by the presentation of two response levers into the chamber. […] During an injection, stimulus lights above both levers were illuminated and lasted throughout a time-out period (20 s) that followed each injection. Pressing the left lever was counted but had no other programmed consequences. […]

Row | Compound | efficacy in the IL-6 evoked grimace test [1] | half-life [2] | IC50 [3] | Papp A→B at 5 uM [4] | Papp B→A at 5 uM [4] | efflux ratio at 5 uM [4] | IC50 [5] | IC50 [6] | Papp A→B [7] | Papp B→A [7] | numbers of infusions, multiple comparisons test: oxycodone and subsequent saline ([8]; 0.15 mg/kg oxycodone, both times this occurred) | Mean Difference, Šídák's multiple comparisons test ([8]; 0.15 mg/kg oxycodone vs. saline (3rd comparison, first occurrence)) | Mean Difference, Šídák's multiple comparisons test ([8]; 0.15 mg/kg oxycodone vs. saline (6th comparison, second occurrence))
1 | Cc1cc(Nc2cc(N)ncn2)c(=O)n2c1C(=O)NC21C=CC2(CC2)CC1 (stereo not shown) [4ET-01-051, 6″-((6-Aminopyrimidin-4-yl)amino)-8″-methyl-2″H-dispiro[cyclopropane-1,1′-cyclohexane-4′,3″-imidazo[1,5-a]pyridin]-2′-ene-1″,5″-dione] | efficacious | 13.9 h | 3.1 nM | 227 nm/s | 524 nm/s | 2.3 | 58.6 nM | 7.3 nM |  |  |  |  | 
2 | Cc1cc(Nc2cc(NC(=O)C3CC4(CNC4)C3)ncn2)c(=O)n2c1C(=O)NC21CCC2(CC2)CC1 [4ET-03-057, N-(6-((8″-methyl-1″,5″-dioxo-1″,5″-dihydro-2″H-dispiro[cyclopropane-1,1′-cyclohexane-4′,3″-imidazo[1,5-a]pyridin]-638-yl)amino)pyrimidin-4-yl)-2-azaspiro[3.3]heptane-6-carboxamide] |  | 3.65 h | 3.4 nM |  |  |  | 61.6 nM | 8.7 nM | 3 nm/s | 11 nm/s |  |  | 
3 | Cc1cc(Nc2cc(N)ncn2)c(=O)n2c1C(=O)NC21CCCC2(CC2)CC1 (racemic) [rac-4ET-01-027, 6″-((6-Aminopyrimidin-4-yl)amino)-8″-methyl-2″H-dispiro[cyclopropane-1,1′-cycloheptane-4′,3″-imidazo[1,5-a]pyridine]-1″,5″-dione] | efficacious | 1.11 h | 1.6 nM | 529 nm/s | 621 nm/s | 1.2 | 35.2 nM | 12.6 nM |  |  |  |  | 
4 | Cc1cc(Nc2cc(N)ncn2)c(=O)n2c1C(=O)NC21CCC2(CC1)CC2(F)F (stereo not shown) [4ET-03-068, 6″-((6-aminopyrimidin-4-yl)amino)-2,2-difluoro-8″-methyl-2″H-dispiro[cyclopropane-1,1′-cyclohexane-4′,3″-imidazo[1,5-a]pyridine]-1″,5″-dione] |  | 4.93 h | 1.5 nM | 187 nm/s | 710 nm/s | 3.8 | 25.3 nM | 3.4 nM |  |  |  |  | 
5 | COc1ccc2c3c1O[C@H]1C(=O)CC[C@@]4(O)[C@@H](C2)N(C)CC[C@]314 [oxycodone, oxycondone, reference compound] |  |  |  |  |  |  |  |  |  |  | significant differences | 6.547 | 9.006
6 | Cc1cc(Nc2cc(N)ncn2)c(=O)n2c1C(=O)NC21CC2(CCCCC2)C1 [4ET-01-020, 6″-((6-aminopyrimidin-4-yl)amino)-8″-methyl-2″H-dispiro[cyclohexane-1,1′-cyclobutane-3′,3″-imidazo[1,5-a]pyridine]-1″,5″-dione] |  | 0.793 h | 3 nM | 467 nm/s | 707 nm/s | 1.5 | 36 nM | 4.3 nM |  |  |  |  | 
7 | Cc1cc(Nc2cc(N)ncn2)c(=O)n2c1C(=O)NC21CC2(CC(F)(F)C2)C1 [4ET-01-017, 6″-((6-aminopyrimidin-4-yl)amino)-3,3-difluoro-8″-methyl-2″H-dispiro[cyclobutane-1,1′-cyclobutane-3′,3″-imidazo[1,5-a]pyridine]-1″,5″-dione] |  | 4.35 h | 7.9 nM | 290 nm/s | 472 nm/s | 1.6 | 69.2 nM | 41.6 nM |  |  |  |  | 
8 | Cc1cc(Nc2cc(N)ncn2)c(=O)n2c1C(=O)NC21CCCC2(CC2)C1 (stereo not shown) [4ET-01-042, 6″-((6-Aminopyrimidin-4-yl)amino)-8″-methyl-2″H-dispiro[cyclopropane-1,1′-cyclohexane-3′,3″-imidazo[1,5-a]pyridine]-1″,5″-dione] |  | 1.88 h | 2 nM | 504 nm/s | 689 nm/s | 1.4 | 16.5 nM | 0.8 nM |  |  |  |  | 
9 | Cc1cc(Nc2cc(N)ncn2)c(=O)n2c1C(=O)NC21CCC2(CCC2)CC1 [4ET-01-019, 6″-((6-aminopyrimidin-4-yl)amino)-8″-methyl-2″H-dispiro[cyclobutane-1,1′-cyclohexane-4′,3″-imidazo[1,5-a]pyridine]-1″,5″-dione] |  | 4.2 h | 4.2 nM | 439 nm/s | 719 nm/s | 1.6 | 43.9 nM | 4.9 nM |  |  |  |  | 
10 | Cc1cc(Nc2cc(N)ncn2)c(=O)n2c1C(=O)NC21CCC2(CCCC2)C1 (stereo not shown) [4ET-01-016, 6″-((6-aminopyrimidin-4-yl)amino)-8″-methyl-2″H-dispiro[cyclopentane-1,1′-cyclopentane-3′,3″-imidazo[1,5-a]pyridine]-1″,5″-dione] |  | 11.3 h | 3.5 nM | 486 nm/s | 465 nm/s | 1 | 33 nM | 8.9 nM |  |  |  |  | 
